Assay results taken from patent publication EP1178110A1, “EDG8 receptor for sphingosine 1-phosphate , its preparation and use” (Aventis Pharma Deutschland GmbH, priority 2000, dated 2002).

Legend:
human EDG8, SEQ ID NO. 2 = test: FLIPR assay of intracellular Ca2+ mobilization in transiently transfected CHO cells; format: cell-based; settings: for increase in intracellular Ca^2+: lipids at 10, 100 and 1000 nM, CHO cells with EDG8 and Gα16 or Gαqi5 (Fig.3), LPA and DHS1P active at 100 and 1000 nM, SPC and LPC tested up to 1 µM
Method: (§1) CHO-K1 cells were grown in basal ISCOVE medium supplemented with 10% fetal bovine serum at 37°C in a humidified 5% CO2 incubator. For transfections, 2 x 10^5 cells were seeded into 35-mm dishes. About 24 hr later cells were transiently transfected at 50-80% confluency with the indicated receptor and G-protein constructs (1µg of plasmid DNA each) using the Lipofectamine transfection reagent and the supplied protocol (GIBCO). 18-24 hr after transfection cells were seeded into 96well plates at a density of 50.000 cells per well and cultured for 18-24 additional hr until used in the functional FLIPR assays. The cDNA for Gα16 was cloned from TF1 cells by RT-PCR and ligated into the pCDNA1.1 mammalian expression vector (Invitrogen). Murine wild type Gαq was cloned from cells by RT-PCR and inserted into the BamHl-Nsil-sites of pCDNA1.1. To create the C-terminally modified Gαqi5 subunit, in which the last five aa of wt Gαq were replaced with the correspoding Gαi sequence, a 175-bp Bg/II-NsiI fragment was replaced, in a two piece ligation, with a synthetic DNA fragment, containing the desired codon changes. The correctness of all PCR-derived sequences was verified by sequencing in both directions.
(§2) Twenty-four hours after transfection, cells were splitted into 96-well, black-wall microplates (Corning) at a density of 50,000 cells per well. 18-24 hr later, cells were loaded with 95µl of HBSS containing 20 mM Hepes, 2.5 mM probenecid, 4 µM fluorescent calcium indicator dye Fluo4 (Molecular Probes) and 1% fetal bovine serum for 1 h(37°C, 5% CO2). Cells were washed three times with HBSS containing 20 mM Hepes and 2.5 mM probenecid in a cell washer. After the final wash, the solution was aspirated to a residual volume of 100 µl per 96 well. Lipid ligands were dissolved in DMSO as 2 mM stock solutions (treated with ultrasound when necessary) and diluted at least 1:100 into HBSS containing 20 mM HEPES, 2.5 mM probenecid and 0.4 mg/ml fatty acid free bovine serum albumine. Lipids were aliquoted as 2X solutions into a 96 well plate prior to the assay. The fluorometric imaging plate reader (FLIPR, Molecular Devices) was programmed to transfer 100 µl from each well of the ligand microplate to each well of the cellplate and to record fluorescence during 3 min in 1 second intervals during the first minute and 3 second intervals during the last two minutes. Total fluorescence counts from the 18-s to 37-s time points are used to determine agonist activity. The instrument software normalizes the fluorescent reading to give equivalent initial readings at time zero.

EDG1 receptor = test: as above; format: cell-based, human; settings: S1P 10, 100 and 1000 nM; CHO cells with EDG1 (Fig.2B)
Method: as §1, §2

EDG3 receptor = test: as above; format: cell-based, human; settings: S1P 10, 100 and 1000 nM; CHO cells with EDG3 (Fig.2C)
Method: as §1, §2

EDG5 receptor = test: as above; format: cell-based, human; settings: S1P 10, 100 and 1000 nM; CHO cells with EDG5 (Fig.2D)
Method: as §1, §2

EDG6 receptor = test: as above; format: cell-based, human; settings: S1P 10, 100 and 1000 nM; CHO cells with EDG6, no cotransfected G-protein α subunit (Fig.2E)
Method: as §1, §2

[1] = tested on: CHO cells transfected with empty vector DNA; test: FLIPR assay of intracellular Ca2+ mobilization in control CHO cells without receptor; format: cell-based, chinese hamster; settings: S1P 10, 100 and 1000 nM; empty vector DNA (Fig.2A)
Method: CHO-K1 cells were grown in basal ISCOVE medium supplemented with 10% fetal bovine serum at 37°C in a humidified 5% CO2 incubator. For transfections, 2 x 10^5 cells were seeded into 35-mm dishes. About 24 hr later cells were transiently transfected at 50-80% confluency with the indicated receptor and G-protein constructs (1µg of plasmid DNA each) using the Lipofectamine transfection reagent and the supplied protocol (GIBCO). 18-24 hr after transfection cells were seeded into 96well plates at a density of 50.000 cells per well and cultured for 18-24 additional hr until used in the functional FLIPR assays. The cDNA for Gα16 was cloned from TF1 cells by RT-PCR and ligated into the pCDNA1.1 mammalian expression vector (Invitrogen). […]
Twenty-four hours after transfection, cells were splitted into 96-well, black-wall microplates (Corning) at a density of 50,000 cells per well. […] The fluorometric imaging plate reader (FLIPR, Molecular Devices) was programmed to transfer 100 µl from each well of the ligand microplate to each well of the cellplate and to record fluorescence during 3 min in 1 second intervals during the first minute and 3 second intervals during the last two minutes. Total fluorescence counts from the 18-s to 37-s time points are used to determine agonist activity. The instrument software normalizes the fluorescent reading to give equivalent initial readings at time zero.

Question: CCCCCCCCCCCCCCCC(O)C(N)COP(=O)(O)O (stereo not drawn) [DHS1P] was tested. Which “increase in intracellular Ca^2+” value (human EDG8, SEQ ID NO. 2) did it give?
Answer: evoked [Ca^2+]i increases

Question: With CCCCCCCC/C=C\CCCCCCCC(=O)OCC(O)COP(=O)(O)O (stereo not drawn) [LPA, lysophosphatidic acid] as the compound, how does the “increase in intracellular Ca^2+” value (human EDG8, SEQ ID NO. 2) read?
Answer: evoked [Ca^2+]i increases

Question: What does the source list for CCCCCCCCCCCCC/C=C/[C@@H](O)[C@@H](N)COP(=O)(O)O [S1P, sphingosin 1-phosphate]?
Answer: release of [Ca^2+]i (human EDG8, SEQ ID NO. 2; S1P 10, 100 and 1000 nM, CHO cells with EDG8, no cotransfected G-protein α subunit (Fig.2F)): did not release [Ca^2+]i; mobilization of Ca^2+ (human EDG8, SEQ ID NO. 2; S1P 10, 100 and 1000 nM, CHO cells with EDG8 cotransfected with Gα16 or Gαqi5 (Fig.2F)): gained the ability to mobilize Ca^2+; increase in intracellular Ca^2+ (human EDG8, SEQ ID NO. 2): most potent activator of EDG8; mobilization of [Ca^2+]i (EDG1 receptor): mobilize [Ca^2+]i; mobilization of [Ca^2+]i (EDG3 receptor): mobilize [Ca^2+]i; mobilization of [Ca^2+]i (EDG5 receptor): mobilize [Ca^2+]i; Ca^2+ increase above basal levels (EDG6 receptor): failed to detect a significant Ca^2+ increase above basal levels; rises in intracellular Ca^2+ [1]: None of the applied S1P concentrations was capable of eliciting significant rises in intracellular Ca^2+

Question: With CCCCCCCCCCCCCC=CC(O)C(N)COP(=O)([O-])OCC[N+](C)(C)C (stereo not drawn) [SPC, sphingosylphosphorylcholine] as the compound, how does the “increase in intracellular Ca^2+” value (human EDG8, SEQ ID NO. 2) read?
Answer: failed to generate any significant response

Question: Which “increase in intracellular Ca^2+” value (human EDG8, SEQ ID NO. 2) does the source give for lysophosphatidylcholine [LPC] here?
Answer: failed to generate any significant response
